Test results taken from patent US6416746B1, “Indanylidene compounds” (Roche Vitamins Inc., priority 1998, dated 2002).

Tests used:
[1] = Solubility in cosmetic solvents (CÉTIOL LC, CRODAMOL DA); conditions: for Solubility in CRODAMOL DA: solvent CRODAMOL DA (Diisopropyl adipate); for Solubility in CÉTIOL LC: solvent CÉTIOL LC (Coco-caprylate/caprate); for solubility in cosmetic solvents (in words): cosmetic solvents such as CÉTIOL LC and CRODAMOL DA
[2] = Photostability at high dilution in ethanol solution under Hg lamp with Pyrex filter; assay type: physicochemical
Description: A 25 ml reaction flask equipped with a distillation bridge and connected to vacuum was charged with 2 g (6.3 mmol) of cyano-(2,3-dihydro-5,6-dimethoxy-3,3-dimethyl-1H-inden-1-ylidene) acetic acid ethyl ester (see Example 1), 1.37 g (6.6 mmol) of 3-(1,1,3,3,3-pentamethy-disiloxanyl)-propanol (see above) and 3 mg of tetraisopropyl ortho titanate. The mixture was heated to 115° C. to 120° C. at a vacuum of 360 mbar with stirring for 11 hours.

SMILES	Solubility in CRODAMOL DA [1]	Solubility in CÉTIOL LC [1]	Solubility in CÉTIOL LC ([1]; listed as drawing 30)	photostability [2]	solubility in cosmetic solvents (in words) [1]	Solubility in CÉTIOL LC ([1]; listed as drawing 33)
CCOC(=O)/C(C#N)=C1\CC(C)(C)c2cc(OC)c(OC)cc21 [Example 1, Cyano-(2,3-dihydro-5,6-dimethoxy-3,3-dimethyl-1H-inden-1-ylidene)acetic Acid Ethyl Ester, reference compound]	1.71%	0.35%	0.35%	–	–	–
COc1cc2c(cc1OC)C(C)(C)C/C2=C(/C#N)C(=O)OCCC[Si](C)(C)O[Si](C)(C)C [Example 2, Cyano-(2,3-dihydro-5,6-dimethoxy-3,3-dimethyl-1H-inden-1-ylidene) acetic Acid-3-(1,1,3,3,3-pentamethy-disiloxanyl)-propyl Ester]	miscible	–	–	excellent photostability	excellent solubility	–
COc1cc2c(cc1OC)C(C)(C)C/C2=C(/C#N)C(=O)OCC(C)C[Si](C)(C)O[Si](C)(C)C (centres unmarked) [Example 3, Cyano-(2,3-dihydro-5,6-dimethoxy-3,3-dimethyl-1H-inden-1-ylidene) acetic Acid-3-(1,1,3,3,3-pentamethy-disiloxanyl)-2-methyl-propyl Ester]	miscible	–	–	same solubility and photostability qualities as described in Example 2b	same solubility and photostability qualities as described in Example 2b	–
COc1cc2c(cc1OC)C(C)(C)C/C2=C(/C#N)C(=O)OCCCC[Si](C)(O[Si](C)(C)C)O[Si](C)(C)C [Example 4, Cyano-(2,3-dihydro-5,6-dimethoxy-3,3-dimethyl-1H-inden-1-ylidene) acetic Acid-4-(1,3,3,3-tetramethyl-1-[(trimethylsilyl)-oxy]-disiloxanyl)-butyl Ester]	miscible	–	–	excellent photostability	–	–
CC[Si](CC)(CC)CCOCCCCOC(=O)/C(C#N)=C1\CC(C)(C)c2cc(OC)c(OC)cc21 [Example 5, Cyano-(2,3-dihydro-5,6-dimethoxy-3,3-dimethyl-1H-inden-1-ylidene) acetic Acid-4-(2-triethylsilanyl-ethoxy)-butyl Ester]	miscible	–	–	same solubility and photostability qualities as described in Example 2b	same solubility and photostability qualities as described in Example 2b	–
CC[Si](/C=C/CCOC(=O)/C(C#N)=C1\CC(C)(C)c2cc(OC)c(OC)cc21)(CC)CC [Example 6, Cyano-(2,3-dihydro-5,6-dimethoxy-3,3-dimethyl-1H-inden-1-ylidene) acetic Acid-4-triethylsilanyl-but-3-enyl Ester]	miscible	–	–	same solubility and photostability qualities as described in Example 2b	same solubility and photostability qualities as described in Example 2b	–
COc1ccc2c(c1)CC(C)/C2=C(/C#N)C(=O)OCCCC[Si](C)(C)O[Si](C)(C)C (centres unmarked) [Example 7, Cyano-(2,3-dihydro-5-methoxy-2-methyl-1H-inden-1-ylidene)acetic Acid-4-(1,1,3,3,3-pentamethy-disiloxanyl)-butyl Ester]	miscible	–	–	same solubility and photostability qualities as described in Example 2b	same solubility and photostability qualities as described in Example 2b	–
C=C(CNC(=O)/C(C#N)=C1\CC(C)(C)c2cc(OC)c(OC)cc21)[Si](C)(O[Si](C)(C)C)O[Si](C)(C)C [Example 8, Cyano-(2,3-dihydro-5,6-dimethoxy-3,3-dimethyl-1H-inden-1-ylidene)acetic Acid-2-(1,3,3,3-tetramethyl-1-[(trimethylsilyl)-oxy]-disiloxanyl)-prop-2-enyl Amide]	miscible	–	–	same photostability qualities as described in Example 2b	–	–
C#CCNC(=O)/C(C#N)=C1\CC(C)(C)c2cc(OC)c(OC)cc21 [Example 8b, 2-Cyano-2-(5,6-dimethoxy-3,3-dimethyl-indan-1-ylidene)-N-prop-2-ynyl-acetamide, reference compound]	–	0.04%	–	–	–	0.04%
C=C(COc1cc2c(cc1OC)/C(=C(\C#N)C(=O)OCC)CC2(C)C)[Si](C)(O[Si](C)(C)C)O[Si](C)(C)C [Example 11]	miscible	–	–	same photostability qualities as described in Example 2b	–	–
CCOC(=O)/C(C#N)=C1\CC(C)(C)c2cc(OC)ccc21 [drawing 31, reference compound]	0.60%	0.10%	–	–	–	–
CCOC(=O)/C(C#N)=C1\CC(C)(C)c2cc(OC)ccc21 [drawing 32, reference compound]	–	0.09%	–	–	–	–
